GI50 and TGI data for 7 molecules are collected here from PubChem BioAssay (NCI).

Values joined by “and” are separate entries in the source; they are usually repeats but may differ in a detail not shown here. Equal entries are not always repeated.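 1) Cells in 96-well plates. 2) Compound, 48 h, 5 concentrations. 3) Linear interpolation between surrounding doses. 4) Unreached endpoint = highest concentration. The concentration for 50% growth inhibition is given as GI50. TGI: total growth inhibition.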

Holding throughout (assay): growth of human tumour cells (NCI), 48 h
Experiment [1] deals with SF-539 CNS.
Experiment [2] concerns SN12C renal.
For experiment [3], the system named is A498 renal.
The test system of experiment [4] is HOP-92 NSCLC.
The subject of experiment [5] is DU-145 prostate.
For experiment [6], the system named is HCT-15 colon.
Experiment [7] concerns COLO 205 colon.
The subject of experiment [8] is A549 NSCLC.
Experiment [9] concerns SK-MEL-5 melanoma.
Experiment [10] deals with NCI/ADR-RES ovarian.

Turning to `C=C1C(=O)O[C@H]2[C@H]1CC/C(COC(=O)NCc1ccc(OC)cc1)=C\CC[C@@]1(C)O[C@@H]21`, the GI50 in experiment [1] was 0.973 µM; in experiment [2], 3.4 µM; in [3], 2.92 µM; in experiment [4], 0.559 µM; in [5], 0.726 µM; in experiment [6], 0.57 µM. Moreover, the GI50 in [7] is 0.656 µM; in experiment [8], 4.28 µM; in [9] it was 2.85 µM; in experiment [10], 2.69 µM. The TGI in experiment [1] worked out at 3.65 µM; in experiment [2], 12.4 µM; in experiment [3], 20 µM; in [4] it was 1.83 µM; in experiment [5], 2.95 µM; in [6] it was 1.87 µM. Also, the TGI was 1.55 µM in experiment [7], 19.2 µM in experiment [8], 17.2 µM in experiment [9] and 21.6 µM in experiment [10].

For the molecule `CN1CCN(Cc2ccc(NC(=O)c3cncc(C#Cc4cnc(N)cc4C#N)c3)cc2C(F)(F)F)CC1`, the GI50 is 0.959 µM in experiment [1]; 2.46 µM in [2]; 0.227 µM in [3]; 0.906 µM in [4]; 3.25 µM in experiment [5]; 3.87 µM in experiment [6]. In addition, the GI50 in experiment [7] is 1.39 µM; in experiment [8] it was 3.89 µM; in experiment [9], 2.29 µM; in experiment [10], 13.7 µM. In addition, the TGI was found to be 3.55 µM in experiment [1]; 10.7 µM in [2]; 3.67 µM in experiment [3]; 4.44 µM in experiment [4]; 15.5 µM in experiment [5]; 13.9 µM in experiment [6]. The TGI in experiment [7] stood at 12.8 µM; in experiment [8], 15.4 µM; in [9], 7.11 µM; in experiment [10], 33.4 µM.

Turning to `O=S1(=O)N(Cc2ccccc2)[C@@H](Cc2ccccc2)[C@H](O)[C@H](O)[C@H](Cc2ccccc2)N1Cc1ccccc1`, the GI50 in [1] is 3.37 µM; in [2] it was 3.26 µM; in experiment [3], 2.45 µM; in experiment [4] it was 3.15 µM; in experiment [5], 3.21 µM; in [6], 4.37 µM. Also, the GI50 was 4.26 µM in experiment [7], 2.99 µM in experiment [8], 3.05 µM in [9] and 3.4 µM in experiment [10]. The TGI was 6.76 µM in experiment [1]; 7.68 µM in [2]; 5.18 µM in experiment [3]; 6.68 µM in experiment [4]; 7.55 µM in [5]; 18.2 µM in experiment [6]. Further, the TGI came to 10.4 µM in [7], 7.62 µM in experiment [8], 5.8 µM in [9] and 8.58 µM in experiment [10].

For the molecule `Cn1cccc1-c1cc(-c2ccccc2)[nH]c(=O)c1C#N`, the GI50 in experiment [1] is above 100 µM; in experiment [2], above 100 µM; in [3] it was 25.6 µM; in experiment [5], above 100 µM; in experiment [6], above 100 µM; in [7], above 100 µM. Moreover, the GI50 in experiment [8], in experiment [9] and in [10] was above 100 µM throughout. Further, the TGI was above 100 µM in [1]; above 100 µM in experiment [2]; above 100 µM in experiment [3]; 0.0283 µM in [4]; above 100 µM in experiment [5]; above 100 µM in [6]. Besides, the TGI in experiment [7], in [8], in [9] and in [10] was above 100 µM in each case.

For the molecule `Cc1ncc(C(=O)Nc2ccc(CN3CCN(C)CC3)c(C(F)(F)F)c2)cc1C#Cc1ccc(N)nc1`, the GI50 in experiment [1] is 0.367 µM; in [2], 0.135 µM; in experiment [3], 0.0898 µM; in [4], 0.116 µM; in experiment [5], 0.186 µM; in experiment [6], 0.224 µM. For the same molecule, the GI50 is 0.239 µM in experiment [7], 0.531 µM in experiment [8], 0.532 µM in experiment [9] and 1.03 µM in experiment [10]. In addition, the TGI in experiment [1] is 1.1 µM; in experiment [2], 2.25 µM; in [3] it was 0.294 µM; in [4] it was 0.935 µM; in [5], 4.12 µM; in experiment [6], 3.7 µM. Besides, the TGI was 4.55 µM in [7], 4.41 µM in experiment [8], 1 µM in [9] and 5.64 µM in experiment [10].

Turning to `O=C(/C=C/c1ccc(O)c(O)c1)NCc1c[nH]c2ccccc12`, the GI50 in experiment [1] was 38.9 µM; in experiment [2], 28.4 µM; in [3], 32.4 µM; in experiment [4], above 100 µM; in [5] it was 78.3 µM; in experiment [6], 44.2 µM. The GI50 in experiment [7] was 49 µM; in [8], above 100 µM; in [9] it was 32.9 µM; in experiment [10], above 100 µM. Further, the TGI was above 100 µM in experiment [1]; 84.7 µM in experiment [2]; above 100 µM in experiment [3]; above 100 µM in [4]; above 100 µM in experiment [5]; above 100 µM in experiment [6]. The TGI in experiment [7], in [8], in experiment [9] and in experiment [10] was above 100 µM in each case.

With `Cc1nc2ccc(Br)cc2c(=O)n1-c1ccc(NC2OCC(O)C(O)C2O)cc1` (stereo not given), the GI50 in experiment [1] was 18.3 µM and > 100 µM; in experiment [2], 30 µM and > 100 µM; in experiment [4] it was 22.4 µM and > 100 µM; in experiment [6], 19.7 µM and > 100 µM; in experiment [7] it was above 100 µM; in [10] it was 41.9 µM and > 100 µM. For the same molecule, the TGI was 37.2 µM and > 100 µM in experiment [1]; above 100 µM in experiment [2]; above 100 µM in experiment [3]; 64.2 µM and > 100 µM in experiment [4]; above 100 µM in experiment [5]; 43.6 µM and > 100 µM in [6]. Further, the TGI in experiment [7], in experiment [8], in experiment [9] and in [10] was above 100 µM throughout.
